These results are taken from PMC6357863, “Dithiocarbamate-inspired side chain stapling chemistry for peptide drug design” (Chemical Science, 2018).

One series in a line: circular dichroism. As to conditions: phosphate buffer (PB); pH 7.2; 20 °C; 10-50 uM. Background: Circular dichroism is widely used to follow secondary structure.
The nature of series [1]: Dithiocarbamate (DTC) stapling of unprotected peptides: Lys side-chain amine + CS2 (Et3N) gives Lys-NH-C(=S)S-, then intramolecular thia-Michael addition to dehydroalanine (Dha, made beforehand from Cys with 2,5-dibromohexanediamide and HPLC-purified). To be noted: the molecule shown is the open-chain precursor, 21-membered ring, ethanol/Et3N/CS2 10:1:1 v/v.
The next series concerns the target cathepsin G (Homo sapiens, UniProt P08311). To be noted: 100 μM peptide, cell culture medium (RPMI 1640), 25 μg/ml cathepsin G, room temperature, RP-HPLC and ESI-MS. The procedure: and three independent experiments were performed.
Fluorescence polarization (FP).
As an additional positive control, we
Tecan Infinite M1000 plate reader. […]
additional incubation for 64 hours.
Circular Dichroism (CD) Spectroscopy. […]
(§1) from 10-50 μM. […] The spectra were […]
of each peptide was calculated as reported previously. 12
Stability in GSH. […] RP-

The nature of series [2]: Circular dichroism spectroscopy, helical content. It is filed as physicochemical. As to conditions: CD, PB pH 7.2, 10-50 μM peptide, 20 °C. The procedure: Circular Dichroism (CD) Spectroscopy.
as §1

The conditions of series [3]: the molecule shown is the open-chain precursor; 21-membered ring.

Like-named read-outs stand apart in the source and are kept apart here.

cathepsin G, sequence (P08311 21-255, species assumed): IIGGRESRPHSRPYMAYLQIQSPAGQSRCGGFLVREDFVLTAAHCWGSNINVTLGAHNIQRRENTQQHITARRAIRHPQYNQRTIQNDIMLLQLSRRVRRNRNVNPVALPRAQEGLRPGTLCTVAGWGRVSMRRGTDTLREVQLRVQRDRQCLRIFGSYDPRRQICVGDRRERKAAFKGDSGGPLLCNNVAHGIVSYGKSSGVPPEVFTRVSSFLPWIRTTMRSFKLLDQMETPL

On to `CC(=O)N[C@H](C(=O)N[C@H]1CSC(=S)NCCCC[C@@H](C(=O)N[C@@H](Cc2c[nH]c3ccccc23)C(=O)N[C@@H](CC(N)=O)C(=O)N[C@@H](CC(C)C)C(=O)N[C@@H](CC(C)C)C(=O)N[C@@H](CO)C(=O)N2CCC[C@H]2C(N)=O)NC(=O)[C@H](CCC(=O)O)NC(=O)[C@H](C)NC(=O)[C@H](Cc2ccccc2)NC1=O)[C@@H](C)O`, for which, in “circular dichroism”, the helicity stood at 4.81%. On the same count and under the same terms, as for `CC(=O)N[C@H](C(=O)N[C@@H](CO)C(=O)N[C@@H](Cc1ccccc1)C(=O)N[C@@H](C)C(=O)N[C@H]1CCCCNC(=S)SC[C@@H](C(=O)N[C@@H](CC(C)C)C(=O)N[C@@H](CO)C(=O)N2CCC[C@H]2C(N)=O)NC(=O)[C@H](CC(N)=O)NC(=O)[C@H](Cc2c[nH]c3ccccc23)NC(=O)[C@H](Cc2ccc(O)cc2)NC1=O)[C@@H](C)O`, the figure is 6.88%.

For `C=C(NC(=O)[C@H](C)NC(=O)[C@H](Cc1ccccc1)NC(=O)[C@H](CO)NC(=O)[C@H](CCCCNC(=S)S)NC(C)=O)C(=O)N[C@@H](Cc1ccc(O)cc1)C(=O)N[C@@H](Cc1c[nH]c2ccccc12)C(=O)N[C@@H](CC(N)=O)C(=O)N[C@@H](CC(C)C)C(=O)N[C@@H](CC(C)C)C(=O)N[C@@H](CO)C(=O)N1CCC[C@H]1C(N)=O` [Ac-Lys-Ser-Phe-Ala-Dha-Tyr-Trp-Asn-Leu-Leu-Ser-Pro-NH2], the ring closure, isolated yield in series [1] turned out to be 28%. `CC(=O)N[C@H](C(=O)N[C@@H](CO)C(=O)N[C@@H](Cc1ccccc1)C(=O)N[C@H]1CCCCNC(=S)SC[C@@H](C(=O)N[C@@H](CC(C)C)C(=O)N[C@@H](CC(C)C)C(=O)N[C@@H](CO)C(=O)N2CCC[C@H]2C(N)=O)NC(=O)[C@H](Cc2c[nH]c3ccccc23)NC(=O)[C@H](Cc2ccc(O)cc2)NC(=O)[C@H](CCC(=O)O)NC1=O)[C@@H](C)O` yielded a helicity in “circular dichroism” of 39.3%. On to `C=C(NC(=O)[C@H](C)NC(=O)[C@H](Cc1ccccc1)NC(=O)[C@H](CO)NC(=O)[C@@H](NC(C)=O)[C@@H](C)O)C(=O)N[C@@H](Cc1ccc(O)cc1)C(=O)N[C@@H](Cc1c[nH]c2ccccc12)C(=O)N[C@@H](CC(N)=O)C(=O)N[C@@H](CCCCNC(=S)S)C(=O)N[C@@H](CC(C)C)C(=O)N[C@@H](CO)C(=O)N1CCC[C@H]1C(N)=O` [Ac-Thr-Ser-Phe-Ala-Dha-Tyr-Trp-Asn-Lys-Leu-Ser-Pro-NH2], for which the ring closure, isolated yield in series [1] was 27%.

As for `CC(=O)N[C@H](C(=O)N[C@@H](CO)C(=O)N[C@@H](Cc1ccccc1)C(=O)N[C@@H](C)C(=O)N[C@@H](CCC(=O)O)C(=O)N[C@@H](Cc1ccc(O)cc1)C(=O)N[C@@H](Cc1c[nH]c2ccccc12)C(=O)N[C@H]1CCCCNC(=S)SC[C@@H](C(N)=O)NC(=O)[C@H](CO)NC(=O)[C@H](CC(C)C)NC(=O)[C@H](CC(C)C)NC1=O)[C@@H](C)O`, in “circular dichroism”, the helicity was 43.3%.

`CC(=O)N[C@H](C(=O)N[C@@H](CO)C(=O)N[C@@H](Cc1ccccc1)C(=O)N[C@@H](C)C(=O)N[C@@H](CCC(=O)O)C(=O)N[C@@H](Cc1ccc(O)cc1)C(=O)N[C@@H](Cc1c[nH]c2ccccc12)C(=O)N[C@H]1CSC(=S)NCCCC[C@@H](C(N)=O)NC(=O)[C@H](CO)NC(=O)[C@H](CC(C)C)NC(=O)[C@H](CC(C)C)NC1=O)[C@@H](C)O` yielded a helicity in “circular dichroism” of 0.23%. Regarding `CC(=O)N[C@H](C(=O)N[C@@H](CO)C(=O)N[C@@H](Cc1ccccc1)C(=O)N[C@H]1CSC(=S)NCCCC[C@@H](C(=O)N[C@@H](CC(C)C)C(=O)N[C@@H](CC(C)C)C(=O)N[C@@H](CO)C(=O)N2CCC[C@H]2C(N)=O)NC(=O)[C@H](Cc2c[nH]c3ccccc23)NC(=O)[C@H](Cc2ccc(O)cc2)NC(=O)[C@H](CCC(=O)O)NC1=O)[C@@H](C)O`, the helicity in “circular dichroism” came to 9.15%.

For the molecule Ac-TSFAEYWNLLSP-NH2 [PMI-0], the “time to full degradation by cathepsin G” value at cathepsin G was not above 30 min. In series [2], the “α-Helix (%)” value worked out at 9.77%. As to `CC(=O)N[C@H](C(=O)N[C@H]1CCCCNC(=S)SC[C@@H](C(=O)N[C@@H](Cc2c[nH]c3ccccc23)C(=O)N[C@@H](CC(N)=O)C(=O)N[C@@H](CC(C)C)C(=O)N[C@@H](CC(C)C)C(=O)N[C@@H](CO)C(=O)N2CCC[C@H]2C(N)=O)NC(=O)[C@H](CCC(=O)O)NC(=O)[C@H](C)NC(=O)[C@H](Cc2ccccc2)NC1=O)[C@@H](C)O`, the helicity in the series “circular dichroism” came to 15.3%. Turning to `C=C(NC(=O)[C@H](CCC(=O)O)NC(=O)[C@H](C)NC(=O)[C@H](Cc1ccccc1)NC(=O)[C@H](CCCCNC(=S)S)NC(=O)[C@@H](NC(C)=O)[C@@H](C)O)C(=O)N[C@@H](Cc1c[nH]c2ccccc12)C(=O)N[C@@H](CC(N)=O)C(=O)N[C@@H](CC(C)C)C(=O)N[C@@H](CC(C)C)C(=O)N[C@@H](CO)C(=O)N1CCC[C@H]1C(N)=O` [Ac-Thr-Lys-Phe-Ala-Glu-Dha-Trp-Asn-Leu-Leu-Ser-Pro-NH2], the ring closure, isolated yield in series [1] is 34%. The same measure, in the same setting: the same measure for `C=C(NC(=O)[C@H](Cc1ccccc1)NC(=O)[C@H](CO)NC(=O)[C@@H](NC(C)=O)[C@@H](C)O)C(=O)N[C@@H](CCC(=O)O)C(=O)N[C@@H](Cc1ccc(O)cc1)C(=O)N[C@@H](Cc1c[nH]c2ccccc12)C(=O)N[C@@H](CCCCNC(=S)S)C(=O)N[C@@H](CC(C)C)C(=O)N[C@@H](CC(C)C)C(=O)N[C@@H](CO)C(=O)N1CCC[C@H]1C(N)=O` [Ac-Thr-Ser-Phe-Dha-Glu-Tyr-Trp-Lys-Leu-Leu-Ser-Pro-NH2]: 33%; for `C=C(NC(=O)[C@H](Cc1c[nH]c2ccccc12)NC(=O)[C@H](Cc1ccc(O)cc1)NC(=O)[C@H](CCC(N)=O)NC(=O)[C@H](CCCCNC(=S)S)NC(=O)[C@H](Cc1ccccc1)NC(=O)[C@H](CO)NC(=O)[C@@H](NC(C)=O)[C@@H](C)O)C(=O)N[C@@H](CC(C)C)C(=O)N[C@@H](CC(C)C)C(=O)N[C@@H](CO)C(=O)N[C@@H](CCCNC(=N)N)C(N)=O` [Ac-Thr-Ser-Phe-Lys-Gln-Tyr-Trp-Dha-Leu-Leu-Ser-Arg-NH2]: 46%. Consider `CC(=O)N[C@H](C(=O)N[C@@H](CO)C(=O)N[C@@H](Cc1ccccc1)C(=O)N[C@@H](C)C(=O)N[C@H]1CSC(=S)NCCCC[C@@H](C(=O)N[C@@H](CC(C)C)C(=O)N[C@@H](CO)C(=O)N2CCC[C@H]2C(N)=O)NC(=O)[C@H](CC(N)=O)NC(=O)[C@H](Cc2c[nH]c3ccccc23)NC(=O)[C@H](Cc2ccc(O)cc2)NC1=O)[C@@H](C)O`, for which the helicity in “circular dichroism” amounted to 9.58%. On to `C=C(NC(=O)[C@@H](NC(C)=O)[C@@H](C)O)C(=O)N[C@@H](Cc1ccccc1)C(=O)N[C@@H](C)C(=O)N[C@@H](CCC(=O)O)C(=O)N[C@@H](CCCCNC(=S)S)C(=O)N[C@@H](Cc1c[nH]c2ccccc12)C(=O)N[C@@H](CC(N)=O)C(=O)N[C@@H](CC(C)C)C(=O)N[C@@H](CC(C)C)C(=O)N[C@@H](CO)C(=O)N1CCC[C@H]1C(N)=O` [Ac-Thr-Dha-Phe-Ala-Glu-Lys-Trp-Asn-Leu-Leu-Ser-Pro-NH2], for which the ring closure, isolated yield in series [1] was 39%. For `CC(=O)N[C@H]1CSC(=S)NCCCC[C@@H](C(=O)N[C@@H](Cc2ccc(O)cc2)C(=O)N[C@@H](Cc2c[nH]c3ccccc23)C(=O)N[C@@H](CC(N)=O)C(=O)N[C@@H](CC(C)C)C(=O)N[C@@H](CC(C)C)C(=O)N[C@@H](CO)C(=O)N2CCC[C@H]2C(N)=O)NC(=O)[C@H](C)NC(=O)[C@H](Cc2ccccc2)NC(=O)[C@H](CO)NC1=O`, the helicity in the series “circular dichroism” came out at 8.38%. As to `C=C(NC(=O)[C@H](Cc1c[nH]c2ccccc12)NC(=O)[C@H](Cc1ccc(O)cc1)NC(=O)[C@H](CCC(=O)O)NC(=O)[C@H](CCCCNC(=S)S)NC(=O)[C@H](Cc1ccccc1)NC(=O)[C@H](CO)NC(=O)[C@@H](NC(C)=O)[C@@H](C)O)C(=O)N[C@@H](CC(C)C)C(=O)N[C@@H](CC(C)C)C(=O)N[C@@H](CO)C(=O)N1CCC[C@H]1C(N)=O` [Ac-Thr-Ser-Phe-Lys-Glu-Tyr-Trp-Dha-Leu-Leu-Ser-Pro-NH2], the ring closure, isolated yield in series [1] was determined as 42%.

Molecule `C=C(NC(=O)[C@H](CO)NC(=O)[C@H](CC(C)C)NC(=O)[C@H](CC(C)C)NC(=O)[C@H](CCCCNC(=S)S)NC(=O)[C@H](Cc1c[nH]c2ccccc12)NC(=O)[C@H](Cc1ccc(O)cc1)NC(=O)[C@H](CCC(=O)O)NC(=O)[C@H](C)NC(=O)[C@H](Cc1ccccc1)NC(=O)[C@H](CO)NC(=O)[C@@H](NC(C)=O)[C@@H](C)O)C(N)=O` [Ac-Thr-Ser-Phe-Ala-Glu-Tyr-Trp-Lys-Leu-Leu-Ser-Dha-NH2] gave a ring closure, isolated yield in series [3] of 45%. `C=C(NC(=O)[C@H](CC(N)=O)NC(=O)[C@H](Cc1c[nH]c2ccccc12)NC(=O)[C@H](Cc1ccc(O)cc1)NC(=O)[C@H](CCCCNC(=S)S)NC(=O)[C@H](C)NC(=O)[C@H](Cc1ccccc1)NC(=O)[C@H](CO)NC(=O)[C@@H](NC(C)=O)[C@@H](C)O)C(=O)N[C@@H](CC(C)C)C(=O)N[C@@H](CO)C(=O)N1CCC[C@H]1C(N)=O` [Ac-Thr-Ser-Phe-Ala-Lys-Tyr-Trp-Asn-Dha-Leu-Ser-Pro-NH2]: the ring closure, isolated yield in series [1] is 24%.

For the molecule `C=C(NC(=O)[C@H](Cc1c[nH]c2ccccc12)NC(=O)[C@H](Cc1ccc(O)cc1)NC(=O)[C@H](CCC(=O)O)NC(=O)[C@H](C)NC(=O)[C@H](Cc1ccccc1)NC(=O)[C@H](CO)NC(=O)[C@@H](NC(C)=O)[C@@H](C)O)C(=O)N[C@@H](CC(C)C)C(=O)N[C@@H](CC(C)C)C(=O)N[C@@H](CO)C(=O)N[C@@H](CCCCNC(=S)S)C(N)=O` [Ac-Thr-Ser-Phe-Ala-Glu-Tyr-Trp-Dha-Leu-Leu-Ser-Lys-NH2], in series [3], the ring closure, isolated yield is 38%. In the case of `C=C(NC(C)=O)C(=O)N[C@@H](CO)C(=O)N[C@@H](Cc1ccccc1)C(=O)N[C@@H](C)C(=O)N[C@@H](CCCCNC(=S)S)C(=O)N[C@@H](Cc1ccc(O)cc1)C(=O)N[C@@H](Cc1c[nH]c2ccccc12)C(=O)N[C@@H](CC(N)=O)C(=O)N[C@@H](CC(C)C)C(=O)N[C@@H](CC(C)C)C(=O)N[C@@H](CO)C(=O)N1CCC[C@H]1C(N)=O` [Ac-Dha-Ser-Phe-Ala-Lys-Tyr-Trp-Asn-Leu-Leu-Ser-Pro-NH2], the ring closure, isolated yield in series [1] stood at 37%.
